# Measurements as given in publication PMC8892231 (EMBO Reports, 2021).
# Columns and labels:
# qC10ORF99 promoter = test: Luciferase reporter assay, Japanese quail C10ORF99 promoter in HEK293 cells; assay type: cell-based; conditions: promoter-pGL4.14 (300 ng), sodium propionate or sodium acetate in serum-free medium for 12 h, normalized to β-galactosidase, vs parental PGL4.14 plasmid, n = 3
# cGPR15‐P246K = test: Intracellular calcium assay, reverse mutant cGPR15‐P246K; assay type: cell-based, Lepisosteus oculatus/Scleropages formosus; conditions: CHO cells, Fluo-4 calcium assay; peptide 10 nM
# cGPR15‐A283L = test: Intracellular calcium assay, reverse mutant cGPR15‐A283L; assay type: cell-based, Latimeria chalumnae; conditions: CHO cells, Fluo-4 calcium assay; peptide 10 nM
activation of the mutant receptor based on Ca2+ measurements (cGPR15‐P246K),activation of the mutant receptor based on Ca2+ measurements (cGPR15‐A283L),Molecule,luciferase activity of the promoter construct (qC10ORF99 promoter)
,,CCC(=O)O [propionate],significantly increased
activated,activated,AAPSPLFVPGPLPQL [qC10ORF99],
,,CC(=O)O [acetate],significantly increased
